PMC7785352, “Antioxidant and α-Glucosidase Inhibitory Activities Guided Isolation and Identification of Components from Mango Seed Kernel” (Oxidative Medicine and Cellular Longevity, 2020)
Marks after values point to notes of the source that are not given here.

Columns and labels:
[1] = DPPH radical scavenging activity assay; conditions: mean ± SD; for IC50: isolated compounds, test concentrations 15.625 to 500 μM
Description: The DPPH radical scavenging activity assay was determined according to the reported method with minor modifications. Briefly, extract and four fractions were dissolved in methyl alcohol at concentrations ranging from 62.5 to 1000 μg/mL, which were prepared to mix with a methyl alcohol solution of DPPH (0.2 mM, 100 μL) on a 96-well plate. After that, shaken gently and stood at room temperature for 30 min, the optical density (OD) 517 nm in each well were determined by a microplate reader. Triplicates of each sample were run, and the mean values were calculated. Ascorbic acid was chosen as positive control. The percentage inhibition (%) for each sample was calculated by the following formula: (1) Inhibition %=1−Abssamples−Abscontrol/Absblank ×100%.
DPPH solution was replaced by a methanol solution, which was used as control, and samples were replaced by the methanol solution as the black. All the results were expressed as means ± standard deviation (SD).
The antioxidant and α-glucosidase inhibitory activities of each isolated compound at concentrations ranging from 15.625 to 500 μM (DPPH) and from 125 to 2000 μM (α-glucosidase inhibitory), respectively, were determined using the methods described in Section 2.3.

α-glucosidase = assay: Inhibitory kinetic analysis (Lineweaver-Burk and Dixon plots); format: biochemical, Baker's yeast; conditions: substrate 0.8-5.0 mM, enzyme 1.3 U/mL; for Ki: determined by Dixon plots; for α-Glucosidase inhibitory Inhibition mode: determined by Lineweaver-Burk plots
Description: The kinetic mechanisms of active compounds 1 and 2 towards α-glucosidase were determined by the graphical views of Dixon and Lineweaver-Burk plots. The concentration ranges for the substrates were 0.8-5.0 mM. The concentration of the enzyme was kept constant at 1.3 U/mL. Lineweaver-Burk plots were established to evaluate the type of inhibition. Dixon plots were used to calculate inhibitory constant (Ki) values of the tested compounds. Each kinetic analysis was implemented in triplicate from which mean Ki values.

[2] = biological target: α-Glucosidase from Baker's yeast; assay: α-Glucosidase inhibitory assay (p-NPG substrate, 96-well plate); format: biochemical; conditions: isolated compounds; for IC50: test concentrations 125 to 2000 μM, mean ± SD
Description: The α-glucosidase inhibitory assay was performed on a 96-well plate by using a microplate reader according to the published method with minor modifications. […] […] After 5 min incubation at 37°C, 20 μL of 4-pNPG (p-nitrophenyl-α-D-glucopyranoside) (2.5 mM) was added and incubated for 15 min; then, 80 μL of Na2CO3 (0.2 M) was added to stop the reaction. The optical density (OD) values were determined using a microplate reader at 405 nm. Triplicates of each sample were run, and the mean values were calculated. […] The IC50 was calculated by using SPSS software.

SMILES | IC50 [1] | other results
O=C1O[C@H]([C@@H](O)CO)C(O)=C1O [Ascorbic acid, reference compound] |  | DPPH assay IC50 ([1]; extract and fractions, test concentrations 62.5 to 1000 μg/mL, n = 3): 9.37 ± 0.84^e μg/mL
O=C(OC[C@H]1O[C@@H](OC(=O)c2cc(O)c(O)c(O)c2)[C@H](OC(=O)c2cc(O)c(O)c(O)c2)[C@@H](OC(=O)c2cc(O)c(O)c(O)c2)[C@@H]1OC(=O)c1cc(O)c(O)c(O)c1)c1cc(O)c(O)c(O)c1 [Compound 1, 1,2,3,4,6-Penta-O-galloyl-β-D-glucoside] | 2.93 ± 1.06 µM | Ki (α-glucosidase): 0.73295 ± 0.00022 µM; α-Glucosidase inhibitory Inhibition mode (α-glucosidase): Noncompetitive
O=C(OCC1OC(OC(=O)c2cc(O)c(O)c(O)c2)C(OC(=O)c2cc(O)c(O)c(O)c2)C(OC(=O)c2cc(O)c(O)c(O)c2)C1OC(=O)c1cc(O)c(O)c(O)c1)c1cc(O)c(O)c(O)c1 [Compound 2, 1,2,3,4,6-Penta-O-galloyl-α-D-glucoside] | 22.3 ± 0.74 µM | Ki (α-glucosidase): 0.09837 ± 0.00031 µM; α-Glucosidase inhibitory Inhibition mode (α-glucosidase): Competitive
O=C(OC[C@H]1O[C@@H](OC(=O)c2cc(O)c(O)c(O)c2)[C@H](OC(=O)c2cc(O)c(O)c(O)c2)[C@@H](OC(=O)c2cc(O)c(O)c(O)c2)[C@@H]1O)c1cc(O)c(O)c(O)c1 [Compound 3, 1,2,3,6-Tetra-O-galloyl-β-D-glucoside] | 23.7 ± 0.52 µM | IC50 [2]: 243.3 ± 1.43 µM
O=C(O)c1cc(O)c(O)c(O)c1 [Compound 6, Gallic acid] | 37.8 ± 2.52 µM | IC50 [2]: 313 ± 3.71 µM
O=C(O)c1ccc(O)c(O)c1 [Compound 7, 3,4-Dihydroxybenzoic acid] | 38.2 ± 1.03 µM | IC50 [2]: 425 ± 31.5 µM
O=C(OCC(O)CO)c1cc(O)c(O)c(O)c1 (stereo not shown) [Compound 9, 1-Glycerol gallate] | > 500 µM | α-glucosidase inhibitory activity (in words) [2]: no inhibitory activity
CCOC(=O)c1cc(O)c(O)c(O)c1 [Compound 10, Ethyl gallate] | 38 ± 1.94 µM | α-glucosidase inhibitory activity (in words) [2]: no inhibitory activity
O=C(O)/C=C/c1ccc(O)c(O)c1 [Compound 12, Caffeic acid] | 36.91 ± 0.3 µM | 
O=c1c(O)c(-c2ccc(O)c(O)c2)oc2cc(O)cc(O)c12 [Compound 13, Quercetin] | 60 ± 0.82 µM | IC50 [2]: 138 ± 7.07 µM

Further lines, with some results ahead:

IC50 [1] | SMILES | other results
52.8 ± 0.93 µM | O=C(O[C@@H]1O[C@H](CO)[C@@H](O)[C@H](O)[C@H]1O)c1cc(O)c(O)c(O)c1 [Compound 4, 1-O-(3,4,5-Trihydroxybenzoyl)-β-D-glucoside] | 
32.3 ± 0.48 µM | COC(=O)c1cc(O)c(O)c(O)c1 [Compound 5, Methyl galate] | α-glucosidase inhibitory activity (in words) [2]: no inhibitory activity
95 ± 2.41 µM | COc1cc(/C=C/C(=O)O)ccc1O [Compound 11, Ferulic acid] | 
40.1 ± 0.82 µM | Oc1cc(O)c2c(c1)O[C@H](c1ccc(O)c(O)c1)[C@H](O)C2 [Compound 16, Epicatechin] | 
